Experimental data from patent US10450337B2, “Pharmaceutical compounds” (Rafael Pharmaceuticals, Inc., priority 2014, dated 2019).

Tests used:
Format in all cases: cell-based
[1] = tested on: H460 non small lung carcinoma cells; assay: Cell kill screening, CellTiter Glo viability assay, H460; settings: Homo sapiens, 24 hours treatment, 0.5% serum and 0.05% DMSO, relative to untreated control; for viability at 50 µM: NCI-H460, 50 μM, read-out: % avg live cells @ 50 μM (% Viable Cells Remaining); for viability at 100 µM: NCI-H460, 100 μM, read-out: % avg live cells @ 100 μM (% Viable Cells Remaining)
Text: (§1) The objective of this investigation was to assess the in vitro cell killing activities of analogs of lipoic acid in BXPC3 human pancreatic, 11460 non small lung carcinoma, and SF539 human gliosarcoma cancer cells.
(§2) Three human tumor cell types, BXPC3 human pancreatic cancer, H460 non small lung carcinoma, and SF539 human gliosarcoma, were used in this investigation. The BXPC3 and H460 cells were originally obtained from American Type Cell Culture (ATCC). The SF539 cells were originally obtained from the NCI AIDS and Cancer Specimen Bank (ACSB). All tumor cells were maintained at 37° C. in a humidified 5% CO2 atmosphere in T75 tissue culture flasks containing 20 mL of Roswell Park Memorial Institute (RPMI) 1640 containing 2 mM L-glutamine, 10% FBS and 1% penicillin and streptomycin (100 IU/mL penicillin and 100 μg/mL streptomycin). The tumor cells were split at a ratio of 1:5 every 4-5 days by trypsinization and resuspended in fresh medium in a new flask. Cells were harvested for experiments at 70-90% confluency.
(§3) Stock solutions of each analog were prepared at a concentration of 200 and 100 mM in DMSO. Five μL of this solution was diluted in 10.0 mL of 0.5% serum containing RPMI media to give the desired 100 μM and 50 μM solutions in 0.05% DMSO.
(§4) The cancer cells were seeded at 4000 cells/well for H460 cells and 6000 cells/well for BXPC3 and SF 539 cells and incubated 24 hours. The killing activity of analogs was assayed at 50 μM and 100 μM concentrations. The tumor cells were treated for 24 hours with the test article, and after 24 hours of treatment the number of viable tumor cells was determined using the CTG assay.
(§5) The number of cells targeted for the study is 4×10^3 per well for H460 cells and 6×10^3 per well for BXPC3 and SF539 cells in 100 μL of medium. The actual number of cells were counted and seeded in the wells of a 96 well-plate. The cells were incubated for approximately 24 hours before addition of test article.
(§6) The media in the plate was removed by aspiration, and 100 μL of the test article at a final concentration of 50 μM or 100 μM was added to the cells. After exposure to the test articles for 24 hours, the number of viable cells in each well was determined and the percent of viable cells relative to control (in the absence of test article) were calculated. Additionally, a set of wells was treated with cell culture medium in the absence of cells to obtain a value for background luminescence. A separate set of cells was seeded at the same time in a clear 96-well plate and observed under the microscope at 24 hours, following addition of the test article to estimate the amount of cells present after treatment.
(§7) The number of viable cells was determined by using the CTG assay. Specifically, reagents were mixed and allowed to come to room temperature according to instructions from Promega, Inc. (Madison, Wis.). Cell plates were removed from the cell culture incubator and left on the bench for thirty minutes until they reached room temperature. 100 μL per well of CTG reagent was added with the 12-channel Eppendorf pipettor. The cells were lysed by shaking the plate for two minutes in a shaker. The cells were kept in room temperature for ten minutes to stabilize the luminescent signal. The luminescence was measured using the FLUOstar OPTIMA plate reader (BMG Labtech, Inc., Durham, N.C.).
(§8) Data from luminescence readings was copied onto EXCEL spreadsheets, and cell growth relative to untreated cells was calculated, using the following equation: […]

[2] = tested on: BXPC3 human pancreatic cancer cells; assay: Cell kill screening, CellTiter Glo viability assay, BXPC3; settings: 24 hours treatment, 0.5% serum and 0.05% DMSO, relative to untreated control; for viability at 50 µM: BXPC-3, 50 μM, read-out: % avg live cells @ 50 μM (% Viable Cells Remaining); for viability at 100 µM: BXPC-3, 100 μM, read-out: % avg live cells @ 100 μM (% Viable Cells Remaining)
Text: as §1, §2, §3, §4, §5, §6, §7, §8

[3] = tested on: SF539 human gliosarcoma cells; assay: Cell kill screening, CellTiter Glo viability assay, SF539; settings: 24 hours treatment, 0.5% serum and 0.05% DMSO, relative to untreated control; for viability at 50 µM: SF-539, 50 μM, read-out: % avg live cells @ 50 μM (% Viable Cells Remaining); for viability at 100 µM: SF-539, 100 μM, read-out: % avg live cells @ 100 μM (% Viable Cells Remaining)
Text: as §1, §2, §3, §4, §5, §6, §7, §8

`CCN(CC)C(=O)CCCCC(CCSCc1ccccc1)SCc1ccccc1` (stereo not shown) [L] was tested, and the viability at 50 µM [1] was 58%, the viability at 100 µM [1] was 18% and the viability at 50 µM [2] was 28%. The viability at 100 µM [2] was 14%, the viability at 50 µM [3] was 58% and the viability at 100 µM [3] was 32%.
`O=C(CCCCC(CCSCc1ccccc1)SCc1ccccc1)N1CCOCC1` (stereo not shown) [J] gave a viability at 50 µM [1] of 37.2%, a viability at 100 µM [1] of 15.8% and a viability at 50 µM [2] of 8.2%. It also gave a viability at 100 µM [2] of 4.6%, a viability at 50 µM [3] of 38.2% and a viability at 100 µM [3] of 15.9%.
Molecule `O=C(O)CCCCCCC(CCSCc1ccccc1)SCc1ccccc1` (stereo not shown) [C] has a viability at 50 µM [1] of 3%, a viability at 100 µM [1] of 15% and a viability at 50 µM [2] of 2%. The viability at 100 µM [2] was 6%, the viability at 50 µM [3] was 5% and the viability at 100 µM [3] was 20%.
In the case of `O=C(O)/C=C/CCCCC(CCSCc1ccccc1)SCc1ccccc1` (stereo not shown) [D], the viability at 50 µM [1] is reported as 15.4%, the viability at 100 µM [1] is reported as 0% and the viability at 50 µM [3] is reported as 9.9%. The viability at 100 µM [3] was 0%.
With `O=C(CCCCC(CCSCc1ccccc1)SCc1ccccc1)NCCN1CCOCC1` (stereo not shown) [K] the viability at 50 µM [1] was 0%, the viability at 100 µM [1] was 0% and the viability at 50 µM [2] was 1%. For the same molecule, the viability at 100 µM [2] was 0%, the viability at 50 µM [3] was 0% and the viability at 100 µM [3] was 0%.
For `CCN(CC)CCNC(=O)CCCCC(CCSCc1ccccc1)SCc1ccccc1` (stereo not shown) [M], the viability at 50 µM [1] was 20.5%, the viability at 100 µM [1] was 8.5% and the viability at 50 µM [2] was 10.8%. It also gave a viability at 100 µM [2] of 1.4%, a viability at 50 µM [3] of 3.1% and a viability at 100 µM [3] of 1.9%.
With `O=C(CCCCC(CCSCc1ccccc1)SCc1ccccc1)OCc1ccccc1` (stereo not shown) [H] the viability at 50 µM [1] was 110%, the viability at 100 µM [1] was 101% and the viability at 50 µM [2] was 92%. It also gave a viability at 100 µM [2] of 84%, a viability at 50 µM [3] of 97% and a viability at 100 µM [3] of 95%.
`O=C(O)CCCCC(CCNC(=O)OCc1ccccc1)NC(=O)OCc1ccccc1` (stereo not shown) [G] was tested, and the viability at 50 µM [1] was 89.1%, the viability at 100 µM [1] was 87% and the viability at 50 µM [2] was 82%. It also gave a viability at 100 µM [2] of 72.6%, a viability at 50 µM [3] of 97.3% and a viability at 100 µM [3] of 79.6%.
In the case of `O=CCCCCC(CCSCc1ccccc1)SCc1ccccc1` (stereo not shown) [A], the viability at 50 µM [1] is reported as 44.9%, the viability at 100 µM [1] is reported as 29.9% and the viability at 50 µM [2] is reported as 37.6%. For the same molecule, the viability at 100 µM [2] was 26.3%, the viability at 50 µM [3] was 29.4% and the viability at 100 µM [3] was 28.1%.
Work on `O=C(CCCCC(CCSCc1ccccc1)SCc1ccccc1)NCCS(=O)(=O)O` (stereo not shown) [N] yielded a viability at 50 µM [1] of 119%, a viability at 100 µM [1] of 89% and a viability at 50 µM [2] of 126%. It also gave a viability at 100 µM [2] of 95%, a viability at 50 µM [3] of 104% and a viability at 100 µM [3] of 75%.
In the case of `NC(=O)CCCCC(CCSCc1ccccc1)SCc1ccccc1` (stereo not shown) [I], the viability at 50 µM [1] is reported as 1%, the viability at 100 µM [1] is reported as 0% and the viability at 50 µM [2] is reported as 1%. The viability at 100 µM [2] was 0%, the viability at 50 µM [3] was 1% and the viability at 100 µM [3] was 1%.
